“And” between values parts separate entries of the source, which are not always exact repeats. Identical values can stand only once. Like-named read-outs stand apart in the source and are kept apart here. Marks after values point to notes of the source that are not given here.
Key:
[1] = Color evaluation (L*a*b*, C*, hue) of sausages with black carrot extract, Example 2; settings: 50 days at 7° C., dark or illuminated last 72 h
Listeria monocytogenes [2] = experiment: Listeria monocytogenes challenge study, Example 6; format: cell-based; settings: after 3 weeks at 7° C.; inoculum 2.6 log10CFU/g
botulinum toxin = tested on: botulinum toxin; set-up: species or system Clostridium botulinum
Listeria monocytogenes [3] = experiment: Listeria monocytogenes challenge test, Example 5 experiment 1; format: cell-based
[4] = Physico-chemical parameters of low salt emulsified cooked pork sausages, Example 6
C. botulinum spores = format: cell-based, Clostridium botulinum
[5] = tested on: C. botulinum spores (Type A: NCTC 7272, Type E: LFMFP-CB 707 and Type E: LFMFP-CB 666); format: cell-based, Clostridium botulinum; settings: 7° C.; for Anaerobic count: Blend 0.4%, Repl 1 and Repl 2
[6] = Lipid oxidation (TBARS) in cooked sausages; settings: 7° C., shelf life of 8 weeks; threshold for off-odor 0.5 ppm
[7] = low salt (1.2%) sausage, dosages per Table 23
[8] = low salt sausage, dosages per Table 23

O=NO [Positive control, sodium nitrite]
Color stability during storage [1]: faded drastically | L. monocytogenes count (Listeria monocytogenes [2]): more than 7 log10CFU/g | Number of samples in which botulinum toxin was detected to total analyzed samples (botulinum toxin): 0/2 | L. monocytogenes count (Listeria monocytogenes [3]; after 8 weeks at 7° C., inoculum 300 CFU/g): 7 log10CFU/g | time to 1 log increase of L. monocytogenes (Listeria monocytogenes [3]; positive control with nitrite, 7° C.): 14 days | aw ([4]; 25° C., low salt sausage, dosages per Table 23): 0.978 | Salt content ([4]; calculated based on sodium content, low salt sausage): 1.55% | Salt content in aqueous phase ([4]; calculated from salt content and moisture content): 2.9% | pH of cooked meat [4, 7]: 6.21^a | pH of meat batter [4, 7]: 5.87^ab | Acetic acid content [4, 8]: 0.008% | Moisture content [4, 8]: 52.3% | Clostridium botulinum outgrowth (C. botulinum spores; 7° C., 8 weeks, significant growth = >0.5 log10CFU/g): no growth of C. botulinum | Anaerobic count (average ± standard deviation, n = 2) (C. botulinum spores; storage time 0 days at 7° C., dosages per Table 23): 3.7 ± 0.1 log10CFU/g | Anaerobic count (average ± standard deviation, n = 2) (C. botulinum spores; storage time 14 days at 7° C., * significant outgrowth (>0.5 log10CFU/g) in at least one replicate): 2.3 ± 0.3 log10CFU/g | Anaerobic count (average ± standard deviation, n = 2) (C. botulinum spores; storage time 24 days at 7° C., * significant outgrowth (>0.5 log10CFU/g) in at least one replicate): 2.4 ± 0.0 log10CFU/g | Anaerobic count (average ± standard deviation, n = 2) (C. botulinum spores; storage time 42 days at 7° C., * significant outgrowth (>0.5 log10CFU/g) in at least one replicate): 2.2 ± 0.1 log10CFU/g | Anaerobic count (average ± standard deviation, n = 2) (C. botulinum spores; storage time 56 days at 7° C., * significant outgrowth (>0.5 log10CFU/g) in at least one replicate): 2.2 ± 0.0 log10CFU/g | growth of C. botulinum ([5]; 8 weeks, 0.4% of the invented blend): no growth | Anaerobic count ([5]; storage time 0 days): 3.08 log10CFU/g and 2.73 log10CFU/g | Anaerobic count ([5]; storage time 14 days): 2.75 log10CFU/g and 2.70 log10CFU/g | Anaerobic count ([5]; storage time 28 days): 2.61 log10CFU/g and 2.62 log10CFU/g | Anaerobic count ([5]; storage time 42 days): 2.67 log10CFU/g and 2.46 log10CFU/g | Anaerobic count ([5]; storage time 56 days): 2.49 log10CFU/g and 2.43 log10CFU/g | Lipid oxidation (TBARS values) [6]: maintain low TBARS values
